Reference: publication PMC9558053, “Development of a novel high-throughput screen for the identification of new inhibitors of protein S-acylation” (The Journal of Biological Chemistry, 2022)

Target: T1, human zDHHC3 (Homo sapiens, UniProt Q9NYG2)
T1 construct: expressed in transfected cells; host or cells: HEK293T
T1 sequence (Q9NYG2 1-299): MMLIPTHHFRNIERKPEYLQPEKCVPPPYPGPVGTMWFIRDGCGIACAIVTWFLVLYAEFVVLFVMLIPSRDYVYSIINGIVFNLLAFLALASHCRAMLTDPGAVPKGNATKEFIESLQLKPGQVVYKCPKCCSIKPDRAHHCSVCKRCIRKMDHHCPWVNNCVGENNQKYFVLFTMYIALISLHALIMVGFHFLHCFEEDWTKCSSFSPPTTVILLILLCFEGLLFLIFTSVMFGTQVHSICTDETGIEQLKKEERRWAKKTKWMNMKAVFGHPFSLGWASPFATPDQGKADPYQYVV
Test: GFP-SNAP25b S-acylation in HEK293T cells co-expressing zDHHC3
Assay type: cell-based
Conditions: in cellulo HEK293T, compound 25 μM; for inhibition at 25 µM: HEK-293T, read-out: SNAP25 S-acylation inhibition (%), zDHHC3
Experimental: We next investigated whether the identified compounds were effective at inhibiting zDHHC enzyme isoforms other than zDHHC2 (Fig. 6 and Table 1). […] We therefore treated cells coexpressing GFP-SNAP25 and each of these zDHHC enzymes with 25 μM of TTZ-1 and TTZ-2 and studied the subsequent effect on SNAP25 S-acylation. […] Importantly, the level of enzyme expression was unaffected by the compounds. […] As any major differences in the expression levels of the different enzymes could in theory contribute to the apparent differential effects of TTZ-1 and TTZ-2, we directly compared the expression of zDHHC2, zDHHC3, zDHHC7, zDHHC15, and zDHHC17 when transfected in HEK293T cells together with GFP-SNAP25.
Figure 6 Activity of TTZ-1 and TTZ-2 against SNAP25 S-acylation by human zDHHC2, zDHHC3, zDHHC7, zDHHC15, and zDHHC17 expressed in mammalian cells.A–E, HEK293T cells were transfected with a plasmid encoding GFP-SNAP25b together with either a control plasmid pEF-BOS-HA (pEF) or a plasmid encoding either HA-tagged human zDHHC2 (zD2) (A), zDHHC3 (zD3) (B), zDHHC7 (zD7) (C), zDHHC15 (zD15) (D), or zDHHC17 (zD17) (E) for 24 h. Cells were then preincubated for 4 h with TTZ-1 or TTZ-2 (25 μM final) or DMSO control before metabolic labeling with 100 μM C16:0-azide for 4 h. Cells were lysed, and proteins having incorporated C16:0-azide were labeled by click chemistry with an alkyne-IR800 dye. Protein samples were then resolved by SDS-PAGE and transferred to nitrocellulose membranes that were first stained with an infrared-680 total protein stain. Membranes were then destained and probed with an anti-HA antibody (IR680), followed by an anti-GFP antibody (IR680). Representative images are shown, and panels are presented in the following order (from top to bottom): click chemistry signal (Click [IR800]), GFP and HA immunoblots (IR680), and Total Protein Stain (IR680). […] Three independent experiments were performed either in duplicate or in triplicate, and the quantification data were gathered on the graphs below each set of membranes. […]

Structure (SMILES)	inhibition at 25 µM [%]	SNAP25 S-acylation inhibition (%), zDHHC3
CCCCCCCOc1ccc(C(=O)Nc2cccc3c2OC(c2nnn[nH]2)CN3)cc1 (stereo not drawn) [TTZ-1, N-(2-(1H-Tetrazol-5-yl)-3,4-dihydro-2H-benzo[b][1,4]oxazin-8-yl)-4-(heptyloxy)benzamide]	9 ± 4	no significant effect
O=C(Nc1cccc2c1OC(c1nnn[nH]1)CN2)c1ccc(OCCCCc2ccccc2)cc1 (stereo not drawn) [TTZ-2, N-(2-(1H-Tetrazol-5-yl)-3,4-dihydro-2H-benzo[b][1,4]oxazin-8-yl)-4-(4-phenylbutoxy)benzamide]	19 ± 3	–
